Measured values published in a melting point compilation (Tetko et al.).

| SMILES | melting point |
| --- | --- |
| N#CCC(=O)c1ccc(Br)s1 | 143 to 145 °C |
| O=C(O)CC1OCCc2ccccc21 (stereo not drawn) | 74 to 76 °C |
| N#Cc1ccc(CS(=O)(=O)NN)cc1 | 142 to 144 °C |
| CCCN(C)S(N)(=O)=O | 32 to 34 °C |
| Cc1cc(C(=O)CCl)c(C)n1-c1ccccc1F | 86 to 90 °C |
| Cc1ccc(C(=O)CCl)cc1 | 53 to 57 °C |
| OC(CC1CCCCCN1)c1cccs1 (stereo not drawn) | 60 to 62 °C |
| CS(=O)(=O)c1ccc(C(N)=S)cc1 | 216 to 218 °C |
| Oc1cccc2c1NCCC2 | 116 to 118 °C |
| CN(C)c1cccc(-c2nnc(N)o2)c1 | 175 to 177 °C |
| CCCc1onc(C)c1C(=O)O | 107 to 109 °C |
| Cc1ccc(CC(=O)Cc2ccc(C)cc2)cc1 | 53 to 55 °C |
| O=C(O)c1cc(-c2ccccc2Cl)[nH]n1 | 225 to 227 °C |
| Cn1cc(CCC(=O)O)c2ccccc21 | 123 to 125 °C |
| Cc1nnc(NCC2CC2)c2ccccc12 | 89 to 91 °C |
| CCc1ccc(C(=O)O)cc1S(C)(=O)=O | 174 to 176 °C |
| CC(Cl)C(=O)NC(C)(C)C (stereo not drawn) | 84 to 86 °C |
| CC(C)(C)OC(=O)N1CCC(C(=O)O)(n2cccn2)CC1 | 159 to 161 °C |
| N#CCc1nc2ccc(Br)cc2c(=O)[nH]1 | 279 to 281 °C |
| Nc1c(-c2cccnc2)nc2ccccn12 | 179 to 181 °C |

| SMILES | melting point |
| --- | --- |
| O=C(O)c1cc(-c2ccc(C(F)(F)F)cc2)no1 | 329 to 331 °C |
| Clc1ccc2[nH]c3c(c2c1)CNCC3 | 226 to 228 °C |
| O=C(O)C1=Nc2cccc3cccc(c23)N1 | 210 to 212 °C |
| Cc1cccc(C)c1OCCO | 70 to 72 °C |
| NC(COC1CCOCC1)=NO | 79 to 81 °C |
| CC1(c2ccc(F)c(F)c2)NC(=O)NC1=O (stereo not drawn) | 175 to 177 °C |
| CC(Oc1ccc(F)cc1)C(=O)NN (stereo not drawn) | 164 to 167 °C |
| CC(=O)NS(=O)(=O)Cl | 92 to 94 °C |
| COc1ccc(-c2nn(Cc3ccccc3)cc2C(=O)O)cc1OC | 110 to 114 °C |
| CC1CCCC(C)N1S(=O)(=O)c1ccsc1C(=O)O (stereo not drawn) | 150 to 152 °C |
| CCNc1ccc(C)nn1 | 99 to 101 °C |
| CC(C)N(C)S(=O)(=O)c1ccc(Cl)c(C(=O)O)c1 | 154 to 156 °C |
| Nc1ncc(Cl)cc1S(N)(=O)=O | 226 to 228 °C |
| O=[N+]([O-])c1cc(Cl)cnc1Br | 75 to 77 °C |
| N#CCc1cc(Cl)ccc1Cl | 92 to 94 °C |
| COc1cc(C(C)=O)ccc1OC(F)F | 65 to 67 °C |
| CC(NO)c1ccccc1 (stereo not drawn) | 73 to 75 °C |
| NS(=O)(=O)c1c(Cl)cccc1[N+](=O)[O-] | 143 to 145 °C |
| CCc1ccc(C(C)=CC(=O)O)cc1 | 104 to 106 °C |
| NC(=O)c1ccc(CCl)cc1 | 178 to 180 °C |

| SMILES | melting point |
| --- | --- |
| CC1(O)CCc2ccccc21 (stereo not drawn) | 56 to 58 °C |
| CN1C(=O)CCC(C(N)=O)C1c1cnn(C)c1 (stereo not drawn) | 185 to 187 °C |
| Cc1c(C(=O)O)cnc2c1c(=O)n(C)c(=O)n2C | 279 to 281 °C |
| CC(CN1CCOCC1)C(=O)NN (stereo not drawn) | 86 to 88 °C |
| CS(=O)(=O)c1ccc(OCCCl)cc1 | 85 to 87 °C |
| CC(C(=O)O)c1cc2ccccc2o1 (stereo not drawn) | 91 to 93 °C |
| O=C(O)c1csc(-c2ccccc2Cl)n1 | 192 to 194 °C |
| COC(=O)c1cccc(N)c1O | 84 to 86 °C |
| Cc1nc(CNC(=O)OC(C)(C)C)ccc1C(=O)O | 163 to 165 °C |
| Cc1n[nH]c(C)c1CO | 178 to 180 °C |
| Cc1cc(NN)nc2ccccc12 | 146 to 148 °C |
| CC(C)(CCC(=O)O)NC(=O)OCC1c2ccccc2-c2ccccc21 | 119 to 121 °C |
| Cc1cc2ncn(Cc3ccc(Cl)cc3)c2cc1C | 143 to 145 °C |
| OCc1ncc(-c2ccc(F)cc2)o1 | 81 to 83 °C |
| Nc1cc(C(=O)O)cc(Cl)n1 | 289 to 291 °C |
| CCCCOc1ccc(C(C)=O)cc1OC | 47 to 49 °C |
| O=C(O)c1ccc(Br)cc1OC(F)F | 133 to 135 °C |
| Nc1cccc2c1C(=O)N(C1CC1)C2=O | 159 to 161 °C |
